According to paper PMC10492809, “A Bischler-Napieralski and homo-Mannich sequence enables diversified syntheses of sarpagine alkaloids and analogues” (Nature Communications, 2023):
Where “and” joins values, the source holds several entries; their conditions need not be identical. Identical values can stand only once. Like-named read-outs stand apart in the source and are kept apart here.

Tests used:
Format in all cases: cell-based
[1] = system: CT26; test: MTT cell viability assay, CT26
Protocol: (§1) All cell lines were cultured at 37 °C with 5% CO2 in a humidified incubator. HeLa cells were grown in MEM (Gibco) supplemented with 10% fetal bovine serum (FBS, Hyclone) and 1% penicillin/streptomycin (Gibco). MIA PaCa-2, MDA-MB-231, A549, MCF-7, A375 and BEAS-2B cells were grown in DMEM (Gibco) supplemented with 10% FBS and 1% penicillin/streptomycin. CT26, and HCT116 cells were grown in RPMI-1640 supplemented with 10% FBS and 1% penicillin/streptomycin. All cell lines were purchased from the National Collection of Authenticated Cell Cultures (China).
(§2) The antiproliferative activities of the prepared compounds against tested cell lines were evaluated using a standard (MTT)-based colorimetric assay. Cells were plated at a density of 3000 cells/well in 96-well plates and allowed to adhere overnight. Then cells were treated with varying concentrations of synthesized compounds for 72 h. At the end of treatment, 20 μL of thiazolyl blue tetrazolium bromide (MTT) solution (5 mg/mL) was added to each well. Cells were incubated for an additional 4 h at 37 °C and then the medium was removed and replaced with 200 μL of DMSO. The absorbance (OD490) was read on a microplate reader (SpectraMax i3x, Molecular Devices, US). In all experiments, three replicate wells were used for each drug concentration. Each assay was performed at least three times. The IC50 values were calculated by GraphPad Prism 9, which were the mean values derived from three independent experiments.

[2] = MTT cytotoxicity towards normal cells, BEAS-2B; conditions: human; for IC50 at 72 h: BEAS-2B lung epithelial cells (normal cells), source data sheet, single values of three experiments; for CC50 at 72 h: BEAS-2B lung epithelial cells, MTT, cytotoxicity towards normal cells, mean of at least three independent experiments
Protocol: as §1, §2

[3] = system: MDA-MB-231; test: MTT cell viability assay, MDA-MB-231
Protocol: as §1, §2

[4] = system: MIA PaCa-2; test: MTT cell viability assay, MIA PaCa-2
Protocol: as §1, §2

[5] = system: A549; test: MTT cell viability assay, A549
Protocol: as §1, §2

[6] = system: Hela; test: MTT cell viability assay, Hela
Protocol: as §1, §2

[7] = system: A375; test: MTT cell viability assay, A375
Protocol: as §1, §2

[8] = system: HCT 116; test: MTT cell viability assay, HCT 116
Protocol: as §1, §2

[9] = system: MCF-7; test: MTT cell viability assay, MCF-7
Protocol: as §1, §2

[10] = system: cancer cell lines; test: In vitro cancer cell assays (antiproliferation, cell line not given)
Protocol: as §1, §2

[11] = system: lung epithelial BEAS-2B cells; test: MTT cytotoxicity towards normal cells, BEAS-2B; conditions: for CC50: MTT, 72 h, cytotoxicity towards normal cells, mean of at least three independent experiments; for IC50: source data sheet, single values of three experiments
Protocol: as §1, §2

[12] = Mus musculus, CT26, 72 h, MTT, 72 h, mean of at least three independent experiments, read-out: IC50 CT26
[13] = Mus musculus, CT26, source data sheet, single values of three experiments, read-out: MTT IC50 CT-26
[14] = source data sheet, single values of three experiments, read-out: MTT IC50 CT-26
[15] = Homo sapiens, MDA-MB-231, 72 h, MTT, 72 h, mean of at least three independent experiments, read-out: IC50 MDA-MB-231
[16] = Homo sapiens, MDA-MB-231, source data sheet, single values of three experiments, read-out: MTT IC50 MDA-MB-231
[17] = source data sheet, single values of three experiments, read-out: MTT IC50 MDA-MB-231
[18] = Homo sapiens, MIA PaCa-2, 72 h, MTT, 72 h, mean of at least three independent experiments, read-out: IC50 MIA PaCa-2
[19] = Homo sapiens, MIA PaCa-2, source data sheet, single values of three experiments, read-out: MTT IC50 MIA PaCa-2
[20] = source data sheet, single values of three experiments, read-out: MTT IC50 MIA PaCa-2
[21] = Homo sapiens, A549, 72 h, MTT, 72 h, mean of at least three independent experiments, read-out: IC50 A549
[22] = Homo sapiens, A549, source data sheet, single values of three experiments, read-out: MTT IC50 A549
[23] = source data sheet, single values of three experiments, read-out: MTT IC50 A549
[24] = Homo sapiens, HeLa, 72 h, MTT, 72 h, mean of at least three independent experiments, read-out: IC50 Hela
[25] = Homo sapiens, HeLa, source data sheet, single values of three experiments, read-out: MTT IC50 Hela
[26] = source data sheet, single values of three experiments, read-out: MTT IC50 Hela
[27] = Homo sapiens, A-375, 72 h, MTT, 72 h, mean of at least three independent experiments, read-out: IC50 A375
[28] = Homo sapiens, A-375, source data sheet, single values of three experiments, read-out: MTT IC50 A375
[29] = source data sheet, single values of three experiments, read-out: MTT IC50 A375
[30] = Homo sapiens, HCT-116, 72 h, MTT, 72 h, mean of at least three independent experiments, read-out: IC50 HCT 116
[31] = Homo sapiens, HCT-116, source data sheet, single values of three experiments, read-out: MTT IC50 HCT-116
[32] = source data sheet, single values of three experiments, read-out: MTT IC50 HCT-116
[33] = Homo sapiens, MCF7, 72 h, MTT, 72 h, mean of at least three independent experiments, read-out: IC50 MCF-7
[34] = Homo sapiens, MCF7, source data sheet, single values of three experiments, read-out: MTT IC50 MCF-7
[35] = source data sheet, single values of three experiments, read-out: MTT IC50 MCF-7
[36] = MTT, 72 h, mean of at least three independent experiments, read-out: IC50 CT26
[37] = MTT, 72 h, mean of at least three independent experiments, read-out: IC50 MDA-MB-231
[38] = MTT, 72 h, mean of at least three independent experiments, read-out: IC50 MIA PaCa-2
[39] = MTT, 72 h, mean of at least three independent experiments, read-out: IC50 A549
[40] = MTT, 72 h, mean of at least three independent experiments, read-out: IC50 Hela
[41] = MTT, 72 h, mean of at least three independent experiments, read-out: IC50 A375
[42] = MTT, 72 h, mean of at least three independent experiments, read-out: IC50 HCT 116
[43] = MTT, 72 h, mean of at least three independent experiments, read-out: IC50 MCF-7

Structure (SMILES)	IC50 [1, 12] [µM]	IC50 [1, 13] [µM]	IC50 [1, 14]	IC50 at 72 h [2] [µM]	CC50 at 72 h [2] [µM]	IC50 [3, 15] [µM]	IC50 [3, 16] [µM]	IC50 [3, 17]	IC50 [4, 18] [µM]	IC50 [4, 19] [µM]	IC50 [4, 20]	IC50 [5, 21] [µM]	IC50 [5, 22] [µM]	IC50 [5, 23]	IC50 [6, 24] [µM]	IC50 [6, 25] [µM]	IC50 [6, 26]	IC50 [7, 29]	IC50 [8, 32]	IC50 [9, 35]	also measured
C=C=C1CN2[C@H]3C[C@H]1[C@H](C=O)[C@@H]2Cc1c3n(S(=O)(=O)c2ccc(C)cc2)c2ccc(Br)cc12 [Compound 15af]	15.8	13.8	18.8 µM and 14.8 µM	> 100	> 100	5.39	5.02	7.05 µM and 4.11 µM	20.2	20.5	23 µM and 17 µM	14.8	17	12.5 µM and 14.9 µM	8.56	9.81	7.52 µM and 8.35 µM	9.41 µM and 6.25 µM	8.41 µM and 9.85 µM	20.1 µM and 19.2 µM	IC50 [7, 27]: 7.51 µM; IC50 [7, 28]: 6.87 µM; IC50 [8, 30]: 9.98 µM; IC50 [8, 31]: 11.7 µM; IC50 [9, 33]: 18.1 µM; IC50 [9, 34]: 15 µM
CC=C1CN2C3CC1C(C=O)C2Cc1c3[nH]c2ccccc12 (stereo not drawn) [vellosimine (4), vellosimine]	20.2	18.9	23.2 µM and 18.5 µM	> 100	> 100	21.2	23	18.2 µM and 22.2 µM	32.6	35.9	29.6 µM and 32.2 µM	23.2	22.2	26.1 µM and 21.4 µM	24.1	27.5	22.6 µM and 22.2 µM	26.2 µM and 27.5 µM	25.2 µM and 27.8 µM	42.7 µM and 36 µM	antiproliferation activity in the in vitro cancer cell assays ([10]; result in words): moderate antiproliferation activity; IC50 [7, 27]: 28.6 µM; IC50 [7, 28]: 32.1 µM; IC50 [8, 30]: 27.5 µM; IC50 [8, 31]: 29.6 µM; IC50 [9, 33]: 39.2 µM; IC50 [9, 34]: 38.9 µM
C=C=C1CN2[C@H]3C[C@H]1[C@H](C(=O)C=C)[C@@H]2Cc1c3n(S(=O)(=O)c2ccc(C)cc2)c2ccccc12 [Compound 15aq]			15.9 µM and 17.2 µM and 14.1 µM					10.1 µM and 8.05 µM and 6.22 µM			22.2 µM and 19.5 µM and 18.9 µM			22.2 µM and 18.2 µM and 17.1 µM			12.4 µM and 9.52 µM and 10.6 µM	9.41 µM and 6.42 µM and 6.61 µM	12.2 µM and 8.29 µM and 10.3 µM	24.3 µM and 27.2 µM and 22.8 µM	IC50 [1, 36]: 15.7 µM; CC50 [11]: > 100 µM; IC50 [11]: > 100 µM; IC50 [3, 37]: 8.12 µM; IC50 [4, 38]: 20.2 µM; IC50 [5, 39]: 19.2 µM; IC50 [6, 40]: 10.9 µM; IC50 [7, 41]: 7.48 µM; IC50 [8, 42]: 10.3 µM; IC50 [9, 43]: 24.8 µM
CC=C1CN2C3CC1C(C=O)C2Cc1c3n(S(=O)(=O)c2ccc(C)cc2)c2ccccc12 (stereo not drawn) [Compound 15ar]			10.9 µM and 8.18 µM and 9.11 µM					5.08 µM and 4.02 µM and 4.8 µM			14.9 µM and 13 µM and 12 µM			16.5 µM and 14 µM and 11.7 µM			7.46 µM and 6.04 µM and 4.98 µM	5.71 µM and 3.87 µM and 4.03 µM	8.05 µM and 5.83 µM and 7.01 µM	19.9 µM and 15.7 µM and 17.7 µM	IC50 [1, 36]: 9.39 µM; CC50 [11]: > 100 µM; IC50 [11]: > 100 µM; IC50 [3, 37]: 4.63 µM; IC50 [4, 38]: 13.3 µM; IC50 [5, 39]: 14.1 µM; IC50 [6, 40]: 6.16 µM; IC50 [7, 41]: 4.54 µM; IC50 [8, 42]: 6.96 µM; IC50 [9, 43]: 17.8 µM
C=C=C1CN2[C@H]3C[C@H]1[C@H](CO)[C@@H]2Cc1c3n(S(=O)(=O)c2ccc(C)cc2)c2ccccc12 [Compound 15ao]																					loss in antiproliferation activity on replacing the aldehyde group ([10]; SAR statement in words): complete
